Measured values taken from ChEMBL document CHEMBL4229455, “Synthesis and anticancer activity of novel bisindolylhydroxymaleimide derivatives with potent GSK-3 kinase inhibition” (Bioorg Med Chem, 2018).

Tests used:
Type in all cases: functional
[1] = system: UACC-257; experiment: Cytotoxicity against human UACC257 cells after 48 hrs by SRB assay; details: UACC-257, 48 h
[2] = system: HOP-92; experiment: Cytotoxicity against human HOP92 cells assessed as cell growth at 0.01 uM after 48 hrs by SRB assay relative to control; details: HOP-92, 48 h, read-out: Activity
[3] = system: RXF 393; experiment: Cytotoxicity against human RXF393 cells assessed as cell growth at 0.1 uM after 48 hrs by SRB assay relative to control; details: RXF 393, 48 h, read-out: Activity
[4] = system: HOP-62; experiment: Cytotoxicity against human HOP62 cells assessed as cell growth at 100 uM after 48 hrs by SRB assay relative to control; details: HOP-62, 48 h, read-out: Activity
[5] = system: HCT-116; experiment: Cytotoxicity against human HCT116 cells assessed as cell growth at 1 uM after 48 hrs by SRB assay relative to control; details: HCT-116, 48 h, read-out: Activity
[6] = system: SK-OV-3; experiment: Cytotoxicity against human SKOV3 cells assessed as cell growth at 0.1 uM after 48 hrs by SRB assay relative to control; details: SK-OV-3, 48 h, read-out: Activity
[7] = system: HT-29; experiment: Cytotoxicity against human HT-29 cells assessed as cell growth at 0.01 uM after 48 hrs by SRB assay relative to control; details: HT-29, 48 h, read-out: Activity
[8] = system: MDA-MB-231; experiment: Cytotoxicity against human MDA-MB-231 cells assessed as cell growth at 100 uM after 48 hrs by SRB assay relative to control; details: MDA-MB-231, 48 h, read-out: Activity
[9] = system: SF-295; experiment: Cytotoxicity against human SF295 cells after 48 hrs by SRB assay; details: SF-295, 48 h; for CC50: read-out: LC50 (the source's name)
[10] = system: CCRF-CEM; experiment: Cytotoxicity against human CCRF-CEM cells after 48 hrs by SRB assay
[11] = system: SK-OV-3; experiment: Cytotoxicity against human SKOV3 cells after 48 hrs by SRB assay; details: SK-OV-3, 48 h
[12] = system: HL-60(TB); experiment: Cytotoxicity against human HL-60(TB) cells after 48 hrs by SRB assay; details: HL-60, 48 h
[13] = system: Hs-578T; experiment: Cytotoxicity against human Hs 578T cells assessed as cell growth at 0.01 uM after 48 hrs by SRB assay relative to control; details: read-out: Activity
[14] = system: MOLT-4; experiment: Cytotoxicity against human MOLT4 cells assessed as cell growth at 1 uM after 48 hrs by SRB assay relative to control; details: MOLT-4, 48 h, read-out: Activity
[15] = system: NCI-H226; experiment: Cytotoxicity against human NCI-H226 cells assessed as cell growth at 0.1 uM after 48 hrs by SRB assay relative to control; details: NCI-H226, 48 h, read-out: Activity
[16] = system: MCF7; experiment: Cytotoxicity against human MCF7 cells after 48 hrs by SRB assay; details: MCF7, 48 h
[17] = system: NCI-H460; experiment: Cytotoxicity against human NCI-H460 cells assessed as cell growth at 100 uM after 48 hrs by SRB assay relative to control; details: NCI-H460, 48 h, read-out: Activity
[18] = system: OVCAR-5; experiment: Cytotoxicity against human OVCAR5 cells assessed as cell growth at 1 uM after 48 hrs by SRB assay relative to control; details: OVCAR-5, 48 h, read-out: Activity
[19] = system: HT-29; experiment: Cytotoxicity against human HT-29 cells after 48 hrs by SRB assay; details: HT-29, 48 h
[20] = system: DU-145; experiment: Cytotoxicity against human DU145 cells assessed as cell growth at 1 uM after 48 hrs by SRB assay relative to control; details: DU-145, 48 h, read-out: Activity
[21] = system: UO-31; experiment: Cytotoxicity against human UO31 cells assessed as cell growth at 0.01 uM after 48 hrs by SRB assay relative to control; details: UO-31, 48 h, read-out: Activity
[22] = system: M14; experiment: Cytotoxicity against human M14 cells after 48 hrs by SRB assay; details: M14, 48 h
[23] = system: ACHN; experiment: Cytotoxicity against human ACHN cells assessed as cell growth at 0.01 uM after 48 hrs by SRB assay relative to control; details: read-out: Activity
[24] = system: SF-539; experiment: Cytotoxicity against human SF539 cells assessed as cell growth at 0.1 uM after 48 hrs by SRB assay relative to control; details: SF-539, 48 h, read-out: Activity
[25] = system: SF-295; experiment: Cytotoxicity against human SF295 cells assessed as cell growth at 100 uM after 48 hrs by SRB assay relative to control; details: SF-295, 48 h, read-out: Activity
[26] = system: MDA-MB-435; experiment: Cytotoxicity against human MDA-MB-435 cells assessed as cell growth at 1 uM after 48 hrs by SRB assay relative to control; details: MDA-MB-435, 48 h, read-out: Activity
[27] = system: HCT-15; experiment: Cytotoxicity against human HCT15 cells assessed as cell growth at 1 uM after 48 hrs by SRB assay relative to control; details: HCT-15, 48 h, read-out: Activity
[28] = system: IGROV-1; experiment: Cytotoxicity against human IGROV1 cells assessed as cell growth at 0.01 uM after 48 hrs by SRB assay relative to control; details: IGROV-1, 48 h, read-out: Activity
[29] = system: SF-539; experiment: Cytotoxicity against human SF539 cells assessed as cell growth at 0.01 uM after 48 hrs by SRB assay relative to control; details: SF-539, 48 h, read-out: Activity
[30] = system: HCT-116; experiment: Cytotoxicity against human HCT116 cells assessed as cell growth at 100 uM after 48 hrs by SRB assay relative to control; details: HCT-116, 48 h, read-out: Activity
[31] = system: HL-60(TB); experiment: Cytotoxicity against human HL-60(TB) cells assessed as cell growth at 1 uM after 48 hrs by SRB assay relative to control; details: HL-60, 48 h, read-out: Activity
[32] = system: KM12; experiment: Cytotoxicity against human KM12 cells assessed as cell growth at 0.01 uM after 48 hrs by SRB assay relative to control; details: KM12, 48 h, read-out: Activity
[33] = system: A549; experiment: Cytotoxicity against human A549 cells assessed as cell growth at 0.01 uM after 48 hrs by SRB assay relative to control; details: A549, 48 h, read-out: Activity
[34] = system: NCI-H226; experiment: Cytotoxicity against human NCI-H226 cells assessed as cell growth at 100 uM after 48 hrs by SRB assay relative to control; details: NCI-H226, 48 h, read-out: Activity
[35] = system: HOP-92; experiment: Cytotoxicity against human HOP92 cells assessed as cell growth at 100 uM after 48 hrs by SRB assay relative to control; details: HOP-92, 48 h, read-out: Activity
[36] = system: BT-549; experiment: Cytotoxicity against human BT549 cells after 48 hrs by SRB assay; details: BT-549, 48 h

With `N#CCCCCCn1cc(C2=C(c3cn(CCCCCC#N)c4ccccc34)C(=O)N(O)C2=O)c2ccccc21` the GI50 [1] was 12.1 µM, the LC50 [1] was > 100 µM and the TGI [1] was 55.6 µM. The growth at 0.01 µM [2] was 97%, the growth at 0.1 µM [3] was 102% and the growth at 100 µM [4] was 4%. The growth at 1 µM [5] was 98%, the growth at 0.1 µM [6] was 88% and the growth at 0.01 µM [7] was 100%. For the same compound, the growth at 100 µM [8] was -7%, the GI50 [9] was 5.93 µM and the TGI [9] was 31.4 µM. For the same compound, the CC50 [9] was > 100 µM, the GI50 [10] was 2730 nM and the LC50 [10] was > 100 µM. The TGI [10] was > 100 µM, the GI50 [11] was 7.78 µM and the LC50 [11] was > 100 µM. For the same compound, the TGI [11] was > 100 µM, the GI50 [12] was 2.54 µM and the LC50 [12] was > 100 µM. It also gave a TGI [12] of 6.44 µM, a growth at 0.01 µM [13] of 93% and a growth at 1 µM [14] of 85%. The growth at 0.1 µM [15] was 96%, the GI50 [16] was 3570 nM and the LC50 (concentration killing 50% of cells) [16] was > 100 µM. The TGI [16] was 30.7 µM, the growth at 100 µM [17] was -26% and the growth at 1 µM [18] was 91%. For the same compound, the GI50 [19] was 10.2 µM, the LC50 [19] was > 100 µM and the TGI [19] was 40.7 µM. For the same compound, the growth at 1 µM [20] was 107%, the growth at 0.01 µM [21] was 97% and the GI50 [22] was 4.42 µM. For the same compound, the LC50 (concentration killing 50% of cells) [22] was > 100 µM, the TGI [22] was 34 µM and the growth at 0.01 µM [23] was 99%. It also gave a growth at 0.1 µM [24] of 90%, a growth at 100 µM [25] of -37% and a growth at 1 µM [26] of 96%. The growth at 1 µM [27] was 92%, the growth at 0.01 µM [28] was 104% and the growth at 0.01 µM [29] was 94%. The growth at 100 µM [30] was -15%, the growth at 1 µM [31] was 100% and the growth at 0.01 µM [32] was 97%. It also gave a growth at 0.01 µM [33] of 100%, a growth at 100 µM [34] of -8% and a growth at 100 µM [35] of 11%. For the same compound, the GI50 [36] was 3440 nM, the LC50 [36] was > 100 µM and the TGI [36] was 24.5 µM.

With `Cn1cc(C2=C(c3cn(C)c4ncccc34)C(=O)NC2=O)c2ccccc21` the GI50 [1] was 6.32 µM, the TGI [1] was 54.8 µM and the growth at 0.01 µM [2] was 90%. It also gave a growth at 0.1 µM [3] of 98%, a growth at 100 µM [4] of -17% and a growth at 1 µM [5] of 86%. It also gave a growth at 0.1 µM [6] of 102%, a growth at 0.01 µM [7] of 109% and a growth at 100 µM [8] of -25%. The GI50 [9] was 2.61 µM, the TGI [9] was 10.3 µM and the CC50 [9] was > 100 µM. For the same compound, the GI50 [10] was 2860 nM, the TGI [10] was > 100 µM and the GI50 [11] was 2.09 µM. It also gave a TGI [11] of 8 µM, a GI50 [12] of 4.05 µM and a TGI [12] of 17.9 µM. The growth at 0.01 µM [13] was 91%, the growth at 1 µM [14] was 101% and the growth at 0.1 µM [15] was 91%. The GI50 [16] was 2400 nM, the TGI [16] was 29.5 µM and the growth at 100 µM [17] was -36%. For the same compound, the growth at 1 µM [18] was 103%, the GI50 [19] was 3.07 µM and the TGI [19] was 20.6 µM. The growth at 1 µM [20] was 104%, the growth at 0.01 µM [21] was 90% and the GI50 [22] was 3.84 µM. The TGI [22] was 12.5 µM, the growth at 0.01 µM [23] was 100% and the growth at 0.1 µM [24] was 107%. For the same compound, the growth at 100 µM [25] was -20%, the growth at 1 µM [26] was 40% and the growth at 1 µM [27] was 84%. The growth at 0.01 µM [28] was 98%, the growth at 0.01 µM [29] was 99% and the growth at 100 µM [30] was -17%. For the same compound, the growth at 1 µM [31] was 113%, the growth at 0.01 µM [32] was 102% and the growth at 0.01 µM [33] was 99%. For the same compound, the growth at 100 µM [34] was -16%, the growth at 100 µM [35] was -21% and the GI50 [36] was 2360 nM. For the same compound, the TGI [36] was 8.09 µM.
